Assays:
[1] = target: T1, HiBit-BRG1 fusion protein (Homo sapiens, UniProt P51532); assay: HiBiT-BRG1 cell-based degradation assay (Nano-Glo HiBiT Lytic Detection, 24 h); details: HeLa cell line expressing HiBit-BRG1 and LgBit; for Dmax: read-out: BRG1 HiBit Degradation Maximum (%); for DC50: read-out: BRMG1 HiBit Degradation IC50
T1 construct: expressed in transfected cells
Outline: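 Luminescence from reconstituted NanoBiT luciferase after lytic detection served as read-out of remaining HiBit-BRG1 in stable HeLa cells, which also express LgBit. Cells were seeded at 5000 per well and incubated with compound for 24 h. DMSO and a 2 μM known degrader defined the control range.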

HiBit-BRM fusion protein = target: T2, HiBit-BRM fusion protein (Homo sapiens, UniProt P51531); assay: HiBiT-BRM cell-based degradation assay (Nano-Glo HiBiT Lytic Detection, 24 h); details: HeLa cell line expressing HiBiT-BRM; for DC50: read-out: BRM HiBit Degradation IC50
T2 construct: expressed in transfected cells
T2 sequence (P51531 whole entry, the tested form may be a part): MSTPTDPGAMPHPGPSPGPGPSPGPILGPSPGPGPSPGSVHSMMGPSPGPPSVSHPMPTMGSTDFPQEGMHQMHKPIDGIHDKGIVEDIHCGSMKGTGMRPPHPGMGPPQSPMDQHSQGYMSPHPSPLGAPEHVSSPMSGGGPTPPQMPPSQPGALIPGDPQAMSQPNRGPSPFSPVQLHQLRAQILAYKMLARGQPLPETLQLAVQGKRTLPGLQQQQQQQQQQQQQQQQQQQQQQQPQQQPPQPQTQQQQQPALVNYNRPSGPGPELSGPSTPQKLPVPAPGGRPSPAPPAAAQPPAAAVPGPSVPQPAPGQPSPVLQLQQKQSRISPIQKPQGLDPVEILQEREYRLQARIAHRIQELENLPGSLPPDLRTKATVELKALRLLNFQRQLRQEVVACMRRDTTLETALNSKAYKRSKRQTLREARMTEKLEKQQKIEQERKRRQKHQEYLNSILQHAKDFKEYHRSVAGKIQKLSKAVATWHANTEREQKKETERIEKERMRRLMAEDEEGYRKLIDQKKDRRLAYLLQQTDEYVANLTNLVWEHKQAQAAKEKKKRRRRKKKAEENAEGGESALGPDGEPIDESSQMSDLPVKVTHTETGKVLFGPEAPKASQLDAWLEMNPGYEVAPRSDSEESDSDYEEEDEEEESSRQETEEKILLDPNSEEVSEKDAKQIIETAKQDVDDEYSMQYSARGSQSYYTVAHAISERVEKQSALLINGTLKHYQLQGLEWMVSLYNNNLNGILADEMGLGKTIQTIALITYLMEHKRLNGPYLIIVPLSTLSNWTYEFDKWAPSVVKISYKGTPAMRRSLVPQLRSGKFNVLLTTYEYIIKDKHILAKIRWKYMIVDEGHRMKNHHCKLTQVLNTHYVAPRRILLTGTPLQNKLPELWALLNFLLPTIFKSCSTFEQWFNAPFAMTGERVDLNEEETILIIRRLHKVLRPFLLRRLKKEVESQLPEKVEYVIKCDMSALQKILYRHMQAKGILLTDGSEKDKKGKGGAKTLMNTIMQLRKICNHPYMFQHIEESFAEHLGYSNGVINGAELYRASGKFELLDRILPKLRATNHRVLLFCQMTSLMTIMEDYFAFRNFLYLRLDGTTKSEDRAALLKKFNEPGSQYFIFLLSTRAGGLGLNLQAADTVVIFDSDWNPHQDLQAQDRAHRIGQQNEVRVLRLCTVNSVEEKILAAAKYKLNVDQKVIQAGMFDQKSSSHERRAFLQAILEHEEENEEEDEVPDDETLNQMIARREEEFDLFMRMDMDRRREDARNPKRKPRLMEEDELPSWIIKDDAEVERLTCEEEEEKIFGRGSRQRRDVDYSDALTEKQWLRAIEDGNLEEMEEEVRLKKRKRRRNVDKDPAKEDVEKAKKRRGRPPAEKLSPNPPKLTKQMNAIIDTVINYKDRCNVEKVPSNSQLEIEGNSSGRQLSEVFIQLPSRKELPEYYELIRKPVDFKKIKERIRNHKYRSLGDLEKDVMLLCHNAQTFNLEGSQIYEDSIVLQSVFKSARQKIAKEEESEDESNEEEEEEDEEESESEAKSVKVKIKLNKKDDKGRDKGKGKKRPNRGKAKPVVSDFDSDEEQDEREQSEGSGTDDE
Outline: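 HeLa cells stably expressing HiBiT-BRM were dosed with compounds (10-point 3-fold dilutions, 30 μM final top dose, duplicate) for 24 h. HiBiT signal was read by lytic LgBiT complementation luminescence. Percent degradation was normalised to DMSO (high control) and 2 μM of a reference BRM/BRG1 degrader (low control).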

T1 sequence (P51532 whole entry, the tested form may be a part): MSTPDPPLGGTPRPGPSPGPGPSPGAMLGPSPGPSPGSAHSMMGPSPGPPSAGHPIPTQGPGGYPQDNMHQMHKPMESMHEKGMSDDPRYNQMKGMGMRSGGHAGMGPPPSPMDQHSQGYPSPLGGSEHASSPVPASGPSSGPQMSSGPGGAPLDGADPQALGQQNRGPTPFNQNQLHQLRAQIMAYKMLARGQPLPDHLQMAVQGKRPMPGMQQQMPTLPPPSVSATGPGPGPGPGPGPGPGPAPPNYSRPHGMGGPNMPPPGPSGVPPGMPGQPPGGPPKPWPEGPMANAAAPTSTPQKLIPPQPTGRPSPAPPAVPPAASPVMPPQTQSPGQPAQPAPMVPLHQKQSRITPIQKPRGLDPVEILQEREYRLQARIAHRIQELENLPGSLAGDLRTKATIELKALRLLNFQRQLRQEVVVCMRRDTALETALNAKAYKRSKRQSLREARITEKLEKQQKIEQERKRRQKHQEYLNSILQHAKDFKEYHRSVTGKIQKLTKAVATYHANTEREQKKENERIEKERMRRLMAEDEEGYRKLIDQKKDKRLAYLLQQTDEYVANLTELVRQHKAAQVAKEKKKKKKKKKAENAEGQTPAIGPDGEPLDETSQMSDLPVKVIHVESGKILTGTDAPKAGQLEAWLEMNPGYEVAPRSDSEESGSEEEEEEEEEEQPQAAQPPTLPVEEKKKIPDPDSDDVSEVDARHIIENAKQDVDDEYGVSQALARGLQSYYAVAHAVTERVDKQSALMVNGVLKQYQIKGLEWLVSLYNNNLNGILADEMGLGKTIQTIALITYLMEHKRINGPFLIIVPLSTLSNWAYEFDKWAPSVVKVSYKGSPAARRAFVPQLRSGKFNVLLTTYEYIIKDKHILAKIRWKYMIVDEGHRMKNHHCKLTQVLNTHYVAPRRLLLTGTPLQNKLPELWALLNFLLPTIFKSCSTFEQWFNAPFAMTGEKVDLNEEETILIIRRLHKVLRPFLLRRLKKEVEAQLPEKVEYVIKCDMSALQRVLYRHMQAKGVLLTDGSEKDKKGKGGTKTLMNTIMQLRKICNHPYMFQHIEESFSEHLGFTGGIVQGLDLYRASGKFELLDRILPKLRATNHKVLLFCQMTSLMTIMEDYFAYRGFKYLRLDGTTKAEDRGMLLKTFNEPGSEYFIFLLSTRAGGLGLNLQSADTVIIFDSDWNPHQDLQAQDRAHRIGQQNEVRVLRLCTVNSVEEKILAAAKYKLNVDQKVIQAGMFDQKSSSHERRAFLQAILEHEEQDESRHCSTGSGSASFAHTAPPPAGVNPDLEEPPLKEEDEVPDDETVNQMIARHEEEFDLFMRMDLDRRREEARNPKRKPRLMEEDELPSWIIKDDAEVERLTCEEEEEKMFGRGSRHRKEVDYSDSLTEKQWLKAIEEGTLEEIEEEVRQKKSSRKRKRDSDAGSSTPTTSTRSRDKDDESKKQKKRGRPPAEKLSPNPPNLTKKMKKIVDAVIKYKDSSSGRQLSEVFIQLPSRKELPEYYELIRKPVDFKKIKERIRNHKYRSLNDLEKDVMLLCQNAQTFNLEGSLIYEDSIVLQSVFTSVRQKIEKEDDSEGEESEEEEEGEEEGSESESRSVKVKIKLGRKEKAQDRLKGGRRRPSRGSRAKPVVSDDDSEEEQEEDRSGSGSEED

Structure (SMILES) | Dmax [1] [%] | DC50 (HiBit-BRM fusion protein) [µM] | DC50 [1] [µM] | BRM HiBit Degradation Maximum (%) (HiBit-BRM fusion protein)
Cc1ncsc1-c1ccc(CNC(=O)[C@@H]2C[C@@H](O)CN2C(=O)[C@@H](NC(=O)CCCCCCCCCCCCCC(=O)N2CC(c3c[nH]c4nnc(-c5ccccc5O)cc34)C2)C(C)(C)C)cc1 [Compound 39, (2S,4R)-4-hydroxy-1-((S)-2-(15-(3-(3-(2-hydroxyphenyl)-7H-pyrrolo[2,3-c]pyridazin-5-yl)azetidin-1-yl)-15-oxopentadecanamido)-3,3-dimethylbutanoyl)-N-(4-(4-methylthiazol-5-yl)benzyl)pyrrolidine-2-carboxamide] | < 50 |  |  | C (“C” indicates maximum degradation < 50%)
Cc1ncsc1-c1ccc(CNC(=O)[C@@H]2C[C@@H](O)CN2C(=O)[C@@H](NC(=O)CCCCC(=O)N2CC(c3cc4cc(-c5ccccc5O)nnc4[nH]3)C2)C(C)(C)C)cc1 [Compound 18, (2S,4R)-4-hydroxy-1-((S)-2-(6-(3-(3-(2-hydroxyphenyl)-7H-pyrrolo[2,3-c]pyridazin-6-yl)azetidin-1-yl)-6-oxohexanamido)-3,3-dimethylbutanoyl)-N-(4-(4-methylthiazol-5-yl)benzyl)pyrrolidine-2-carboxamide] | < 50 |  |  | C (“C” indicates maximum degradation < 50%)
Cc1ncsc1-c1ccc([C@H](C)NC(=O)[C@@H]2C[C@@H](O)CN2C(=O)[C@@H](c2cc(N3CCN(C(=O)c4cc5cc(-c6ccccc6O)nnc5[nH]4)CC3)no2)C(C)C)cc1 (racemic) [Compound 253, (2S,4R)-4-hydroxy-1-((R)-2-(3-(4-(3-(2-hydroxyphenyl)-7H-pyrrolo[2,3-c]pyridazine-6-carbonyl)piperazin-1-yl)isoxazol-5-yl)-3-methylbutanoyl)-N-((S)-1-(4-(4-methylthiazol-5-yl)phenyl)ethyl)pyrrolidine-2-carboxamide] | > 75 | > 0.1 | > 0.1 | A (“A” indicates maximum degradation ≥ 75%)
O=C1CCC(N2C(=O)c3cccc(OCCCCC(=O)N4CC(c5cc6cc(-c7ccccc7O)nnc6[nH]5)C4)c3C2=O)C(=O)N1 (stereo not drawn) [Compound 7, 2-(2,6-dioxopiperidin-3-yl)-4-((5-(3-(3-(2-hydroxyphenyl)-7H-pyrrolo[2,3-c]pyridazin-6-yl)azetidin-1-yl)-5-oxopentyl)oxy)isoindoline-1,3-dione] | > 50 | > 1 | > 1 | B (“B” indicates maximum degradation ≥ 50%)
Cc1ncsc1-c1ccc([C@H](C)NC(=O)[C@@H]2C[C@@H](O)CN2C(=O)[C@@H](c2cc(N3CCN(C(=O)C(=O)N4CC(c5cc6cc(-c7ccccc7O)nnc6[nH]5)C4)CC3)no2)C(C)C)cc1 (single isomer, unassigned) [Compound 234] | < 50 | > 0.1 |  | A (“A” indicates maximum degradation ≥ 75%)
Cc1ncsc1C12CC(CNC(=O)[C@@H]3C[C@@H](O)CN3C(=O)[C@@H](c3cc(OCCN4CC(c5cc6cc(-c7ccccc7O)nnc6[nH]5)C4)no3)C(C)C)(C1)C2 (single isomer, unassigned) [Compound 115] | < 50 |  |  | C (“C” indicates maximum degradation < 50%)
Cc1ncsc1-c1ccc([C@H](C)NC(=O)[C@@H]2C[C@@H](O)CN2C(=O)[C@@H](c2cc(N3CCN(CCC(=O)N4CC(c5cc6cc(-c7ccccc7O)nnc6[nH]5)C4)CC3)no2)C(C)C)cc1 (racemic) [Compound 268, (2S,4R)-4-hydroxy-1-[(2R)-2-{3-[4-(3-{3-[3-(2-hydroxyphenyl)-7H-pyrrolo[2,3-c]pyridazin-6-yl]azetidin-1-yl}-3-oxopropyl)piperazin-1-yl]-1,2-oxazol-5-yl}-3-methylbutanoyl]-N-[(1S)-1-[4-(4-methyl-1,3-thiazol-5-yl)phenyl]ethyl]pyrrolidine-2-carboxamide] |  | > 0.1 | > 1 | A (“A” indicates maximum degradation ≥ 75%)

Further lines, with some results ahead:

Dmax [1] [%] | DC50 (HiBit-BRM fusion protein) [µM] | DC50 [1] [µM] | Structure (SMILES) | BRM HiBit Degradation Maximum (%) (HiBit-BRM fusion protein)
< 50 | > 0.1 |  | Cc1ncsc1-c1ccc([C@H](C)NC(=O)[C@@H]2C[C@@H](O)CN2C(=O)[C@@H](c2cc(OCCNCc3cc4cc(-c5ccccc5O)nnc4[nH]3)no2)C(C)C)cc1 (racemic) [Compound 212, (2S,4R)-4-hydroxy-1-((R)-2-(3-(2-(((3-(2-hydroxyphenyl)-7H-pyrrolo[2,3-c]pyridazin-6-yl)methyl)amino)ethoxy)isoxazol-5-yl)-3-methylbutanoyl)-N-((S)-1-(4-(4-methylthiazol-5-yl)phenyl)ethyl)pyrrolidine-2-carboxamide] | A (“A” indicates maximum degradation ≥ 75%)
> 50 | > 0.01 | > 0.1 | Cc1ncsc1-c1ccc([C@H](C)NC(=O)[C@@H]2C[C@@H](O)CN2C(=O)[C@@H](c2cc(OCCN3CC4(CC(c5cc6cc(-c7ccccc7O)nnc6[nH]5)C4)C3)no2)C(C)C)cc1 (racemic) [Compound 54, (2S,4R)-4-hydroxy-1-((R)-2-(3-(2-(6-(3-(2-hydroxyphenyl)-7H-pyrrolo[2,3-c]pyridazin-6-yl)-2-azaspiro[3.3]heptan-2-yl)ethoxy)isoxazol-5-yl)-3-methylbutanoyl)-N-((S)-1-(4-(4-methylthiazol-5-yl)phenyl)ethyl)pyrrolidine-2-carboxamide] | A (“A” indicates maximum degradation ≥ 75%)
> 50 | > 0.1 | > 0.1 | Cc1ncsc1-c1ccc([C@H](C)NC(=O)[C@@H]2C[C@@H](O)CN2C(=O)[C@@H](c2cc(OCCNC(=O)[C@H]3CCc4[nH]c5nnc(-c6ccccc6O)cc5c4C3)no2)C(C)C)cc1 (single isomer, unassigned) [Compound 167] | A (“A” indicates maximum degradation ≥ 75%)
< 50 | > 0.01 |  | Cc1ncsc1-c1ccc([C@H](C)NC(=O)[C@@H]2C[C@@H](O)CN2C(=O)[C@@H](c2cc(OCCN[C@H]3CCc4[nH]c5nnc(-c6ccccc6O)cc5c4C3)no2)C(C)C)cc1 (single isomer, unassigned) [Compound 200] | A (“A” indicates maximum degradation ≥ 75%)
< 50 | > 0.1 |  | Cc1ncsc1-c1ccc([C@H](C)NC(=O)[C@@H]2C[C@@H](O)CN2C(=O)[C@@H](c2cc(C3CCN(C(=O)[C@]4(N)CCc5[nH]c6nnc(-c7ccccc7O)cc6c5C4)CC3)no2)C(C)C)cc1 (relative stereo) [Compound 104, (2S,4R)-1-[(2R)-2-(3-{1-[(6R*)-6-amino-3-(2-hydroxyphenyl)-5H,7H,8H,9H-pyridazino[3,4-blindole-6-carbonyl]piperidin-4-yl}-1,2-oxazol-5-yl)-3-methylbutanoyl]-4-hydroxy-N-[(1S)-1-[4-(4-methyl-1,3-thiazol-5-yl)phenyl]ethyl]pyrrolidine-2-carboxamide] | B (“B” indicates maximum degradation ≥ 50%)
> 75 | > 0.01 | > 0.1 | Cc1ncsc1-c1ccc([C@H](C)NC(=O)[C@@H]2C[C@@H](O)CN2C(=O)[C@@H](c2cc(N3CCC(CN[C@H]4CCc5[nH]c6nnc(-c7ccccc7O)cc6c5C4)CC3)no2)C(C)C)cc1 [Compound 159, (2S,4R)-4-hydroxy-1-((R)-2-(3-(4-((((S)-3-(2-hydroxyphenyl)-6,7,8,9-tetrahydro-5H-pyridazino[3,4-b]indol-6-yl)amino)methyl)piperidin-1-yl)isoxazol-5-yl)-3-methylbutanoyl)-N-((S)-1-(4-(4-methylthiazol-5-yl)phenyl)ethyl)pyrrolidine-2-carboxamide] | A (“A” indicates maximum degradation ≥ 75%)
< 50 | > 0.01 |  | Cc1ncsc1-c1ccc([C@H](C)NC(=O)[C@@H]2C[C@@H](O)CN2C(=O)[C@@H](c2cc(OCCN3C[C@@H]4[C@H](C3)[C@H]4c3cc4cc(-c5cccc(F)c5O)nnc4[nH]3)no2)C(C)C)cc1 (racemic) [Compound 142, (2S,4R)-1-((R)-2-(3-(2-((1R,5S,6R)-6-(3-(3-fluoro-2-hydroxyphenyl)-7H-pyrrolo[2,3-c]pyridazin-6-yl)-3-azabicyclo[3.1.0]hexan-3-yl)ethoxy)isoxazol-5-yl)-3-methylbutanoyl)-4-hydroxy-N-((S)-1-(4-(4-methylthiazol-5-yl)phenyl)ethyl)pyrrolidine-2-carboxamide] | A (“A” indicates maximum degradation ≥ 75%)
> 50 |  |  | Cc1ncsc1-c1ccc([C@H](C)NC(=O)[C@@H]2C[C@@H](O)CN2C(=O)[C@@H](c2cc(OCCN3CC(C4(C)Cc5cc(-c6ccccc6O)nnc5N4)C3)no2)C(C)C)cc1 (stereo partly drawn) [Compound 122, (2S,4R)-4-hydroxy-1-((2R)-2-(3-(2-(3-(3-(2-hydroxyphenyl)-6-methyl-6,7-dihydro-5H-pyrrolo[2,3-c]pyridazin-6-yl)azetidin-1-yl)ethoxy)isoxazol-5-yl)-3-methylbutanoyl)-N-((S)-1-(4-(4-methylthiazol-5-yl)phenyl)ethyl)pyrrolidine-2-carboxamide] | C (“C” indicates maximum degradation < 50%)
< 50 |  |  | Cc1ncsc1-c1ccc([C@H](C)NC(=O)[C@@H]2C[C@@H](O)CN2C(=O)[C@H](c2cc(C3CN(C(=O)c4cc5cc(-c6ccccc6O)nnc5[nH]4)C3)no2)C(C)C)cc1 (single isomer, unassigned) [Compound 176] | C (“C” indicates maximum degradation < 50%)
